Test results taken from patent US8268363B2, “Pharmaceutical combination preparation containing glycyrrhizine, zinc, and a compound comprising a thiol group or a group that is metabolized thereto” (priority 2003, dated 2012).

Tested on: flu symptoms (colds, flu, viral infection of the upper respiratory tract)
Assay: clinical studies in flu symptoms: single substances and the combination
Format: in vivo, human
Details: single treatment; for effect on a scale of 1-10 (1 least effect, 10 maximum effect): daily dose divided in three doses; for average duration of the illness: daily dose divided in three doses (zinc 125 mg, N-acetylcysteine 2400 mg, glycyrrhicinic acid 1500 mg), without treatment normally 7 days
Experimental: In clinical studies each single substance was tested in flu symptoms (colds, flu, viral infection of the upper respiratory tract) whose duration without treatment normal lasted 7 days.
a) Zinc as a single treatment: • 125mg per day, divided in three doses:
b) N-Acetylcysteine • 2400 mg, divided in three doses;
c) Glycyrrhicinic acid • 1500 mg, divided in three doses;
The average duration of illness with the treatment combination of all three of the above substances a), b), and c) in the majority of the cases the duration of the illness was shortened to 24 hours or less. […] 24 hours later, 85% of the patients were completely without symptoms and able to return to work. The maximum duration in a few cases lasted 5 days.
Further, 20 children between the ages of 7 to 15 years old were treated with half of the doses from the combination of a) b) and c). The results were the same as for the adults.

CC(=O)N[C@@H](CS)C(=O)O [N-Acetylcysteine]
effect on a scale of 1-10 (1 least effect, 10 maximum effect): 5
average duration of the illness: 4 days

Glycyrrhicinic acid
effect on a scale of 1-10 (1 least effect, 10 maximum effect): 2
average duration of the illness: 5.0 days

Zinc
effect on a scale of 1-10 (1 least effect, 10 maximum effect): 2
average duration of the illness: 5 days
